Laboratory results as given in US8445006B2, “Biomolecular coating for implants” (Georgia Tech Research Corporation, priority 2006, dated 2013).

Columns and labels:
[1] = system: bone marrow stromal cells; test: Centrifugation cell adhesion assay on titanium surfaces; type: cell-based, rat; details: for stromal cell adhesion (adherent cell fraction): 1 h serum-free, centrifugation 12 g, no antibody, adsorbed on Ti at 20 μg/ml
Description: Primary bone marrow stromal cells were harvested from the femora of young adult male Wistar rats in accordance with an IACUC-approved protocol. After excision, hindleg femora and tibiae were cleared of soft tissue and rinsed in growth medium (α-minimal essential medium supplemented with 10% fetal bovine serum, 1% penicillin-streptomycin, and 0.3 μg/ml amphotericin B). The ends of the long bones were then removed and the marrow space was flushed with culture medium (3-5 ml), using a syringe with an 18-gauge needle. Marrow isolates were pooled, centrifuged, resuspended in growth medium, and seeded for adhesion-dependent selection on tissue culture polystyrene dishes. Non-adherent hematopoietic cells were removed during subsequent medium exchanges, which occurred every other day. Cells were subcultured every two days according to standard techniques. For in vitro osteogenic assays, cells were seeded at 10,000 cells/cm^2 in growth medium. After 24 h, cultures were maintained in osteogenic medium consisting of growth medium supplemented with 50 μg/ml L-ascorbic acid and 3 mM sodium β-glycerophosphate.
The peptide […](GPP)5GFOGER(GPP)5GPC (SEQ ID NO:1) [O=hydroxyproline] was prepared by the Emory University Microchemical Facility using solid phase t-Boc synthesis. Peptide was supplied in the purified form as a trifluoroacetic acid (TFA) salt and reconstituted at a stock concentration of 10 mg/ml in 0.1% TFA. For the in vitro assays, glass chamber slides (16-well Lab-Tek Chamber Slides, Nalge Nunc) or tissue culture-treated polystyrene dishes were coated with 300 Å of pure titanium using an electron beam evaporator at a chamber base pressure between 1-2×10^−6 torr with a deposition rate of 1.5 Å/second. The GFOGER peptide (SEQ ID NO:1) was diluted to 20 μg/ml in Dulbecco's phosphate-buffered saline (PBS) and incubated on the titanium surfaces for 1 h at 22° C.
Cell adhesion to functionalized and untreated titanium surfaces was measured using a centrifugation assay that applies controlled detachment forces. Titanium-coated glass chamber slide wells were reassembled using a silicone-based adhesive and coated with 20 μg/ml GFOGER peptide (SEQ ID NO:1) or 20 μg/ml GRGDSPC (SEQ ID NO:3) peptide (BACHEM). Control titanium slides were coated with 10% FBS (to model serum protein adsorption) or blocking buffer (5% non-fat dry milk in PBS to produce a non adhesive support). […] Initial fluorescence intensity was measured to quantify the number of adherent cells prior to application of centrifugal force. […] After centrifugation, media was exchanged and fluorescence intensity was read to measure remaining adherent cells. For each well, adherent cell fraction was calculated as the ratio of post-spin to pre-spin fluorescence readings. […]

FAK = FAK phosphorylation on ligand-tethered brush surfaces with integrin blocking antibodies; type: cell-based, rat; details: for effect of integrin blocking antibodies on FAK phosphorylation: anti-α5 and anti-β3 antibodies
Description: Cells were detached and gently agitated in serum-free suspension for 45 min to reduce background. Cells were then seeded at 200 cells/mm^2 serum-free for 1 h. Cells were lysed in RIPA buffer (1% Triton X-100, 1% sodium deoxycholate, 0.1% SDS, 150 mM NaCl, 150 mM Tris-HCl (pH 7.2), 350 μg/ml PMSF, 10 μg/ml leupeptin, and 10 μg/ml aprotonin) for 20 min on ice. Samples were pipetted up and down 20 times and centrifuged at 8000 g for 10 min to shear DNA and isolate protein contents. Total protein was quantified using micro-BCA (Pierce). Equal amounts of protein were boiled for 10 min in Laemmli buffer and separated by SDS-PAGE on a 7% gel, transferred to nitrocellulose membranes, and blocked with Blotto (5% nonfat dry milk, 0.20% Tween-20) overnight at 4° C. Membranes were gently rocked in antibodies against FAK and specific phosphorylated FAK tyrosine residues (anti-total FAK at 1 μg/ml, anti-FAK pY397 at 0.35 μg/ml, anti-FAK pY576 at 0.5 μg/ml) for 1 h. After washing with TBS-Tween (20 mM Tris HCl pH 7.6, 137 mM NaCl, 0.1% Tween-20), secondary antibody (biotin-conjugated anti-rabbit IgG; 1:20,000) was added for 1 h, followed by alkaline phosphatase-conjugated anti-biotin antibody (1:10,000) in Blotto. Immunoreactivity was assessed by ECF fluorescent substrate. FAK bands were visualized by a Fuji Image Analyzer and phosphorylation levels normalized to total FAK.
FAK is an intracellular signaling molecule involved in integrin-mediated signal transduction and the osteogenic differentiation pathway. Phosphotyrosine-specific antibodies were used to examine the activation state of three important tyrosines in FAK: Y397 (autophosphorylation site), Y576 (essential for maximal kinase activity), and Y861 (major Src phosphorylation site) (FIG. 13C). […] These differences in integrin binding specificity and FAK activation modulate cell signaling pathways and higher order cellular activities.

[2] = vs RGD-functionalized brushes and serum-exposed titanium

In the case of “GGYGGGPC(GPP)5GFOGER(GPP)5GPC [GFOGER peptide]”, the “cell adhesion with blocking anti-α2 antibody” value ([1]; 20 μg/ml anti-rat α2 antibody) is reported as “completely eliminated cell adhesion”, the “cell adhesion with function-perturbing anti-αv antibody” value ([1]; 20 μg/ml anti-rat αv antibody) is reported as “had no effect on adhesion” and the “stromal cell adhesion (adherent cell fraction)” value [1] is reported as “greater stromal cell adhesion”.

“GRGDSPC [RGD peptide, linear RGD oligopeptide purchased from BACHEM; primarily supports αvβ3-mediated adhesion, reference compound]” was tested, and the “stromal cell adhesion (adherent cell fraction)” value [1] was “equivalent to background levels”, the “effect of integrin blocking antibodies on FAK phosphorylation” value (FAK) was “only the anti-β3 antibody reduced FAK phosphorylation” and the “FAK Y861 phosphorylation” value (FAK; relative to FNIII7-10-tethered surface) was “elevated”.

For “FNIII7-10: monobiotinylated recombinant fibronectin fragment spanning the 7-10th type III repeats of fibronectin; α5β1 integrin ligand”, the “effect of integrin blocking antibodies on FAK phosphorylation” value (FAK) was “blocking antibodies against α5, but not β3, reduced the levels of phospho-Y397 and Y576”, the “FAK Y397 phosphorylation” value (FAK; [2]) was “higher phosphorylation levels” and the “FAK Y576 phosphorylation” value (FAK; [2]) was “higher phosphorylation levels”.
